In PubChem BioAssay AID212 (DTP/NCI, 2004):
Several values for one entry are separate records, joined by “and”; a condition that tells them apart may be missing. Equal entries are not always repeated. Records with an inconclusive call do not appear.

System: BDF1 mice, colon carcinoma 38 sc, T/C %
Experiment: NCI In Vivo Anticancer Drug Screen. Data for tumor model Colon Carcinoma 38 (subcutaneous) in B6D2F1 (BDF1) mice
Outline: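 Ratio of survival or tumor size, compound-treated animals relative to vehicle controls, in tumor-bearing mice.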

[1] = endpoint: median tumor weight (est.), dose: 12.5 mg/kg/injection, schedule: Q07DX003 (ip), vehicle: saline, higher = larger tumour
[2] = endpoint: median tumor weight (est.), dose: 25.0 mg/kg/injection, schedule: Q07DX002 (ip), vehicle: saline, higher = larger tumour
[3] = endpoint: median tumor weight (est.), dose: 25.0 mg/kg/injection, schedule: Q07DX003 (ip), vehicle: saline, higher = larger tumour
[4] = endpoint: median tumor weight (est.), dose: 50.0 mg/kg/injection, schedule: Q07DX002 (ip), vehicle: saline, higher = larger tumour
[5] = endpoint: median tumor weight (est.), dose: 50.0 mg/kg/injection, schedule: Q07DX003 (ip), vehicle: saline, higher = larger tumour
[6] = endpoint: median tumor weight (est.), dose: 100.0 mg/kg/injection, schedule: Q07DX003 (ip), vehicle: saline, higher = larger tumour
[7] = endpoint: median tumor weight (est.), dose: 200.0 mg/kg/injection, schedule: Q07DX003 (ip), vehicle: saline, higher = larger tumour
[8] = endpoint: median tumor weight (est.), dose: 25.0 mg/kg/injection, schedule: Q07DX002 (ip), vehicle: Klucel (hydroxypropylcellulose) (HPC), higher = larger tumour
[9] = endpoint: median tumor weight (est.), dose: 50.0 mg/kg/injection, schedule: Q07DX002 (ip), vehicle: Klucel (hydroxypropylcellulose) (HPC), higher = larger tumour
[10] = endpoint: median tumor weight (est.), dose: 100.0 mg/kg/injection, schedule: Q07DX002 (ip), vehicle: Klucel (hydroxypropylcellulose) (HPC), higher = larger tumour
[11] = endpoint: median tumor weight (est.), dose: 12.5 mg/kg/injection, schedule: Q07DX002 (ip), vehicle: saline, higher = larger tumour
[12] = endpoint: median tumor weight (est.), dose: 200.0 mg/kg/injection, schedule: Q07DX002 (ip), vehicle: saline, higher = larger tumour
[13] = endpoint: median tumor weight (est.), dose: 400.0 mg/kg/injection, schedule: Q07DX002 (ip), vehicle: saline, higher = larger tumour
[14] = endpoint: median tumor weight (est.), dose: 1.0 mg/kg/injection, schedule: Q07DX002 (ip), vehicle: Klucel (hydroxypropylcellulose) (HPC), higher = larger tumour
[15] = endpoint: median tumor weight (est.), dose: 8.0 mg/kg/injection, schedule: Q07DX002 (ip), vehicle: Klucel (hydroxypropylcellulose) (HPC), higher = larger tumour
[16] = endpoint: median tumor weight (est.), dose: 16.0 mg/kg/injection, schedule: Q07DX002 (ip), vehicle: Klucel (hydroxypropylcellulose) (HPC), higher = larger tumour
[17] = endpoint: median tumor weight (est.), dose: 6.25 mg/kg/injection, schedule: Q07DX002 (ip), vehicle: Klucel (hydroxypropylcellulose) (HPC), higher = larger tumour
[18] = endpoint: median tumor weight (est.), dose: 12.5 mg/kg/injection, schedule: Q07DX002 (ip), vehicle: Klucel (hydroxypropylcellulose) (HPC), higher = larger tumour
[19] = endpoint: median tumor weight (est.), dose: 3.12 mg/kg/injection, schedule: Q07DX002 (ip), vehicle: Klucel (hydroxypropylcellulose) (HPC), higher = larger tumour

c1cc2n(n1)CCN2
T/C (endpoint: median tumor weight (est.), dose: 6.25 mg/kg/injection, schedule: Q07DX002 (ip), vehicle: saline, higher = larger tumour): 76 % of control
T/C [1]: 110 % of control
T/C (endpoint: median tumor weight (est.), dose: 25.0 mg/kg/injection, schedule: Q01DX005 (ip), vehicle: saline, higher = larger tumour): 86 % of control
T/C (endpoint: median tumor weight (est.), dose: 25.0 mg/kg/injection, schedule: Q04DX003 (ip), vehicle: saline, higher = larger tumour): 84 % of control
T/C [2]: 94 % of control
T/C [3]: 92 % of control
T/C (endpoint: median tumor weight (est.), dose: 50.0 mg/kg/injection, schedule: Q01DX005 (ip), vehicle: saline, higher = larger tumour): 36 % of control
T/C [4]: 166 % of control
T/C [5]: 74 % of control
T/C (endpoint: median tumor weight (est.), dose: 100.0 mg/kg/injection, schedule: Q01DX005 (ip), vehicle: saline, higher = larger tumour): 44 % of control
T/C (endpoint: median tumor weight (est.), dose: 100.0 mg/kg/injection, schedule: Q04DX003 (ip), vehicle: saline, higher = larger tumour): 42 % of control
T/C [6]: 65 % of control
T/C (endpoint: median tumor weight (est.), dose: 200.0 mg/kg/injection, schedule: Q01DX005 (ip), vehicle: saline, higher = larger tumour): 47 % of control
T/C (endpoint: median tumor weight (est.), dose: 200.0 mg/kg/injection, schedule: Q04DX003 (ip), vehicle: saline, higher = larger tumour): 97 % of control
T/C [7]: 66 % of control
T/C (endpoint: median tumor weight (est.), dose: 400.0 mg/kg/injection, schedule: Q04DX003 (ip), vehicle: saline, higher = larger tumour): 75 % of control
T/C (endpoint: median tumor weight (est.), dose: 400.0 mg/kg/injection, schedule: Q07DX003 (ip), vehicle: saline, higher = larger tumour): 56 % of control

CC1=NNC(=O)C1CCO (stereo not drawn)
T/C [8]: 97 % of control
T/C [9]: 95 % of control
T/C [10]: 69 % of control
T/C (endpoint: median tumor weight (est.), dose: 200.0 mg/kg/injection, schedule: Q07DX002 (ip), vehicle: Klucel (hydroxypropylcellulose) (HPC), higher = larger tumour): 72 % of control
T/C (endpoint: median tumor weight (est.), dose: 400.0 mg/kg/injection, schedule: Q07DX002 (ip), vehicle: Klucel (hydroxypropylcellulose) (HPC), higher = larger tumour): 55 % of control
T/C (endpoint: median tumor weight (est.), dose: 800.0 mg/kg/injection, schedule: Q07DX002 (ip), vehicle: Klucel (hydroxypropylcellulose) (HPC), higher = larger tumour): 77 % of control

O=c1[nH]c(=O)c2nc(-c3cccnc3)cnc2[nH]1
T/C [11]: 116 % of control
T/C [2]: 78 % of control and 81 % of control
T/C [12]: 80 % of control and 103 % of control
T/C [13]: 95 % of control and 97 % of control

N/C(=N\O)c1cn(C2OC(CO)C(O)C2O)c2ncnc(N)c12 (stereo not drawn)
T/C [14]: 72 % of control
T/C (endpoint: median tumor weight (est.), dose: 2.0 mg/kg/injection, schedule: Q07DX002 (ip), vehicle: Klucel (hydroxypropylcellulose) (HPC), higher = larger tumour): 82 % of control
T/C (endpoint: median tumor weight (est.), dose: 4.0 mg/kg/injection, schedule: Q07DX002 (ip), vehicle: Klucel (hydroxypropylcellulose) (HPC), higher = larger tumour): 79 % of control
T/C (endpoint: median tumor weight (est.), dose: 4.0 mg/kg/injection, schedule: Q07DX003 (ip), vehicle: Klucel (hydroxypropylcellulose) (HPC), higher = larger tumour): 6 % of control
T/C [15]: 91 % of control
T/C (endpoint: median tumor weight (est.), dose: 8.0 mg/kg/injection, schedule: Q07DX003 (ip), vehicle: Klucel (hydroxypropylcellulose) (HPC), higher = larger tumour): 17 % of control
T/C [16]: 93 % of control
T/C (endpoint: median tumor weight (est.), dose: 16.0 mg/kg/injection, schedule: Q07DX003 (ip), vehicle: Klucel (hydroxypropylcellulose) (HPC), higher = larger tumour): 7 % of control

NC(Cc1ccc(N(CCCl)CCCl)cc1)C(=O)O (stereo not drawn)
T/C [14]: 71 % of control
T/C (endpoint: median tumor weight (est.), dose: 1.0 mg/kg/injection, schedule: Q07DX002 (ip), vehicle: water, higher = larger tumour): 84 % of control
T/C (endpoint: median tumor weight (est.), dose: 2.0 mg/kg/injection, schedule: Q07DX002 (ip), vehicle: water, higher = larger tumour): 97 % of control
T/C (endpoint: median tumor weight (est.), dose: 4.0 mg/kg/injection, schedule: Q07DX002 (ip), vehicle: water, higher = larger tumour): 59 % of control
T/C [15]: 47 % of control and 51 % of control and 53 % of control
T/C (endpoint: median tumor weight (est.), dose: 8.0 mg/kg/injection, schedule: Q07DX002 (ip), vehicle: water, higher = larger tumour): 37 % of control
T/C [16]: 9 % of control and 14 % of control

CC(=O)[C@]1(O)Cc2c(O)c3c(c(O)c2[C@@H](OC2CC(N)C(O)C(C)O2)C1)C(=O)c1c(O)cccc1C3=O (stereo partly drawn)
T/C (endpoint: median survival time, dose: 0.7 mg/kg/injection, schedule: Q07DX003 (iv), vehicle: water, higher = longer survival): 87 % of control
T/C (endpoint: median survival time, dose: 1.7 mg/kg/injection, schedule: Q07DX003 (iv), vehicle: water, higher = longer survival): 107 % of control
T/C (endpoint: median survival time, dose: 2.7 mg/kg/injection, schedule: Q07DX003 (iv), vehicle: water, higher = longer survival): 176 % of control

CN(CO)c1nc(N(C)CO)nc(N(C)CO)n1
T/C [11]: 95 % of control
T/C [1]: 208 % of control
T/C [2]: 87 % of control
T/C [3]: 165 % of control
T/C (endpoint: median tumor weight (est.), dose: 50.0 mg/kg/injection, schedule: Q07DX002 (ip), vehicle: saline with Tween-80, higher = larger tumour): 117 % of control
T/C [4]: 66 % of control
T/C [5]: 81 % of control
T/C (endpoint: median tumor weight (est.), dose: 100.0 mg/kg/injection, schedule: Q07DX002 (ip), vehicle: saline with Tween-80, higher = larger tumour): 105 % of control
T/C (endpoint: median tumor weight (est.), dose: 100.0 mg/kg/injection, schedule: Q07DX002 (ip), vehicle: saline, higher = larger tumour): 46 % of control
T/C [6]: 46 % of control
T/C (endpoint: median tumor weight (est.), dose: 200.0 mg/kg/injection, schedule: Q07DX002 (ip), vehicle: saline with Tween-80, higher = larger tumour): 55 % of control
T/C [12]: 21 % of control
T/C [7]: 6 % of control
T/C [13]: 4 % of control

CN1CCc2c(c3ccccc3c3ccccc23)C1
T/C [17]: 111 % of control
T/C [18]: 93 % of control
T/C [9]: 86 % of control
T/C [10]: 72 % of control

CC(=O)c1cccc(NC2C(N)C(NC(=O)N(C)C)(C(C)O)C(C)(O)C2(O)COC(=O)c2c(C)cccc2O)c1 (stereo not drawn)
T/C (endpoint: median tumor weight (est.), dose: 1.0 mg/kg/injection, schedule: Q07DX002 (ip), vehicle: suspension in saline, higher = larger tumour): 110 % of control
T/C (endpoint: median tumor weight (est.), dose: 2.0 mg/kg/injection, schedule: Q07DX002 (ip), vehicle: suspension in saline, higher = larger tumour): 152 % of control
T/C (endpoint: median tumor weight (est.), dose: 4.0 mg/kg/injection, schedule: Q07DX002 (ip), vehicle: suspension in saline, higher = larger tumour): 104 % of control
T/C (endpoint: median tumor weight (est.), dose: 8.0 mg/kg/injection, schedule: Q07DX002 (ip), vehicle: suspension in saline, higher = larger tumour): 71 % of control

CN1C(=O)NC(c2ccc(Cl)cc2)(c2ccc(Cl)cc2)C1=O
T/C (endpoint: median tumor weight (est.), dose: 12.5 mg/kg/injection, schedule: Q07DX002 (ip), vehicle: distilled water + Tween-80, higher = larger tumour): 95 % of control
T/C (endpoint: median tumor weight (est.), dose: 25.0 mg/kg/injection, schedule: Q07DX002 (ip), vehicle: distilled water + Tween-80, higher = larger tumour): 105 % of control
T/C (endpoint: median tumor weight (est.), dose: 50.0 mg/kg/injection, schedule: Q07DX002 (ip), vehicle: distilled water + Tween-80, higher = larger tumour): 51 % of control
T/C (endpoint: median tumor weight (est.), dose: 100.0 mg/kg/injection, schedule: Q07DX002 (ip), vehicle: distilled water + Tween-80, higher = larger tumour): 97 % of control
T/C (endpoint: median tumor weight (est.), dose: 200.0 mg/kg/injection, schedule: Q07DX002 (ip), vehicle: distilled water + Tween-80, higher = larger tumour): 52 % of control
T/C (endpoint: median tumor weight (est.), dose: 400.0 mg/kg/injection, schedule: Q07DX002 (ip), vehicle: distilled water + Tween-80, higher = larger tumour): 58 % of control

[I][Hg][CH2]C1OCCOC1[CH2][Hg][I] (stereo not drawn)
T/C (endpoint: median tumor weight (est.), dose: 1.56 mg/kg/injection, schedule: Q07DX002 (ip), vehicle: Klucel (hydroxypropylcellulose) (HPC), higher = larger tumour): 93 % of control
T/C [19]: 101 % of control
T/C [17]: 92 % of control
T/C [18]: 99 % of control and 106 % of control
T/C [8]: 83 % of control and 91 % of control

O=[Te]=O
T/C [2]: 98 % of control
T/C [4]: 93 % of control

Nc1nc(N)c2c(ccc3c2ccn3Cc2cccc([N+](=O)[O-])c2)n1
T/C (endpoint: median tumor weight (est.), dose: 3.12 mg/kg/injection, schedule: Q07DX002 (ip), vehicle: saline with Tween-80, higher = larger tumour): 85 % of control
T/C (endpoint: median tumor weight (est.), dose: 6.25 mg/kg/injection, schedule: Q07DX002 (ip), vehicle: saline with Tween-80, higher = larger tumour): 80 % of control
T/C (endpoint: median tumor weight (est.), dose: 12.5 mg/kg/injection, schedule: Q07DX002 (ip), vehicle: saline with Tween-80, higher = larger tumour): 72 % of control
T/C (endpoint: median tumor weight (est.), dose: 25.0 mg/kg/injection, schedule: Q07DX002 (ip), vehicle: saline with Tween-80, higher = larger tumour): 14 % of control

Cn1c(=O)c2ncnnc2n(C)c1=O
T/C [19]: 75 % of control
T/C [17]: 84 % of control
T/C [18]: 78 % of control
T/C [8]: 62 % of control
